{
  "source": "patent US20090311344A1",
  "about": "“Dosing Regimen” (priority 2008, published 2009)",
  "test": "Multiple dose study in cancer subjects: treatment-emergent (serious) adverse events",
  "procedure": "46 subjects with cancer receiving platinum-based therapies were enrolled into 3 cohorts (N=16 in Cohort 1, 14 in Cohort 2, and 16 in Cohort 3). The subjects received the TPO mimetic peptide compound or placebo within 2 hours prior to the platinum-based chemotherapy on Day 1 of the first 2 cycles with a 21-day interval between each cycle. In addition to the Day 1 administration, gemcitabine administration was permitted on Day 8 of each cycle. Other chemotherapy medications were limited to dosing on Day 1 of each cycle only. Subjects were followed up for a total of 4 cycles of chemotherapy. Chemotherapy regimen continued beyond the first 4 cycles as per standard of care therapy. In the first cohort, 12 subjects received 1.5 μg/kg the TPO mimetic peptide compound and 4 subjects received placebo. In the second cohort 10 subjects received 3.0 μg/kg the TPO mimetic peptide compound and 4 subjects received placebo. In the third cohort, 12 subjects received 2.25 μg/kg the TPO mimetic peptide compound and 4 subjects received placebo. […] Therefore, a third cohort at a lower dose (2.25 μg/kg) was added to collect additional safety, tolerability, PD, and PK data.",
  "data": [
    {"substance": "Methoxypolyethyleneglycol20000-propionyl-L-Isoleucyl-L-Glutamyl-Glycyl-L-Prolyl-L-Threonyl-L-Leucyl-L-Arginyl-L-Glutaminyl-L-2-Naphthylalanyl-L-Leucyl-L-Alanyl-L-Alanyl-L-Arginyl-Sarcosyl-Ne-(methoxypolyethyleneglycol20000-propionyl-L-Isoleucyl-L-Glutamyl-Glycyl-L-Prolyl-L-Threonyl-L-Leucyl-L-Arginyl-L-Glutaminyl-L-2-Naphthylalanyl-L-Leucyl-L-Alanyl-L-Alanyl-L-Arginyl-Sarcosyl-)-Lysinamide [TPO mimetic peptide compound]", "values": [
      {"measurement": "Adverse event: Fatigue", "setting": "3.0 ug/kg, n of N = 10", "result": 4},
      {"measurement": "Adverse event: Febrile neutropenia", "setting": "3.0 ug/kg, n of N = 10", "result": 0},
      {"measurement": "Adverse event: Folliculitis", "setting": "3.0 ug/kg, n of N = 10", "result": 0},
      {"measurement": "Adverse event: Gastrointestinal disorders", "setting": "3.0 ug/kg, n of N = 10", "result": 6},
      {"measurement": "Adverse event: General disorders and administration site conditions", "setting": "3.0 ug/kg, n of N = 10", "result": 6},
      {"measurement": "Adverse event: General physical health deterioration", "setting": "3.0 ug/kg, n of N = 10", "result": 0},
      {"measurement": "Adverse event: Haematocrit decreased", "setting": "3.0 ug/kg, n of N = 10", "result": 1},
      {"measurement": "Adverse event: Headache", "setting": "3.0 ug/kg, n of N = 10", "result": 1},
      {"measurement": "Adverse event: Hemorrhoids", "setting": "3.0 ug/kg, n of N = 10", "result": 0},
      {"measurement": "Adverse event: Hepatobiliary disorders", "setting": "3.0 ug/kg, n of N = 10", "result": 0},
      {"measurement": "Adverse event: Hiccups", "setting": "3.0 ug/kg, n of N = 10", "result": 0},
      {"measurement": "Adverse event: Hyperbilirubinaemia", "setting": "3.0 ug/kg, n of N = 10", "result": 0},
      {"measurement": "Adverse event: Hypersensitivity", "setting": "3.0 ug/kg, n of N = 10", "result": 1},
      {"measurement": "Adverse event: Hypertension", "setting": "3.0 ug/kg, n of N = 10", "result": 0},
      {"measurement": "Adverse event: Hypoalbuminaemia", "setting": "3.0 ug/kg, n of N = 10", "result": 0},
      {"measurement": "Adverse event: Hypocalcaemia", "setting": "3.0 ug/kg, n of N = 10", "result": 0},
      {"measurement": "Adverse event: Hypokalaemia", "setting": "3.0 ug/kg, n of N = 10", "result": 0},
      {"measurement": "Adverse event: Hypomagnesaemia", "setting": "3.0 ug/kg, n of N = 10", "result": 0},
      {"measurement": "Adverse event: Hyponatraemia", "setting": "3.0 ug/kg, n of N = 10", "result": 0},
      {"measurement": "Adverse event: Hypophosphataemia", "setting": "3.0 ug/kg, n of N = 10", "result": 0},
      {"measurement": "Adverse event: Immune system disorders", "setting": "3.0 ug/kg, n of N = 10", "result": 1},
      {"measurement": "Adverse event: Insomnia", "setting": "3.0 ug/kg, n of N = 10", "result": 1},
      {"measurement": "Adverse event: Investigations", "setting": "3.0 ug/kg, n of N = 10", "result": 4},
      {"measurement": "Adverse event: Leukocytosis", "setting": "3.0 ug/kg, n of N = 10", "result": 1},
      {"measurement": "Adverse event: Leukopenia", "setting": "3.0 ug/kg, n of N = 10", "result": 2},
      {"measurement": "Adverse event: Lung abscess", "setting": "3.0 ug/kg, n of N = 10", "result": 0},
      {"measurement": "Adverse event: Lymphopenia", "setting": "3.0 ug/kg, n of N = 10", "result": 0},
      {"measurement": "Adverse event: Metabolism and nutrition disorders", "setting": "3.0 ug/kg, n of N = 10", "result": 3},
      {"measurement": "Adverse event: Mucosal inflammation", "setting": "3.0 ug/kg, n of N = 10", "result": 0},
      {"measurement": "Adverse event: Musculoskeletal and connective tissue disorders", "setting": "3.0 ug/kg, n of N = 10", "result": 2},
      {"measurement": "Adverse event: Nausea", "setting": "3.0 ug/kg, n of N = 10", "result": 2},
      {"measurement": "Adverse event: Neoplasms benign, malignant and unspecified (incl cysts and polyps)", "setting": "3.0 ug/kg, n of N = 10", "result": 0},
      {"measurement": "Adverse event: Nervous system disorders", "setting": "3.0 ug/kg, n of N = 10", "result": 2},
      {"measurement": "Adverse event: Neuropathy peripheral", "setting": "3.0 ug/kg, n of N = 10", "result": 0},
      {"measurement": "Adverse event: Neutropenia", "setting": "3.0 ug/kg, n of N = 10", "result": 3},
      {"measurement": "Adverse event: Oedema", "setting": "3.0 ug/kg, n of N = 10", "result": 1},
      {"measurement": "Adverse event: Oedema peripheral", "setting": "3.0 ug/kg, n of N = 10", "result": 0},
      {"measurement": "Adverse event: Pain", "setting": "3.0 ug/kg, n of N = 10", "result": 0},
      {"measurement": "Adverse event: Pain in extremity", "setting": "3.0 ug/kg, n of N = 10", "result": 1},
      {"measurement": "Adverse event: Paraesthesia", "setting": "3.0 ug/kg, n of N = 10", "result": 1},
      {"measurement": "Adverse event: Peripheral motor neuropathy", "setting": "3.0 ug/kg, n of N = 10", "result": 0},
      {"measurement": "Adverse event: Peripheral sensory neuropathy", "setting": "3.0 ug/kg, n of N = 10", "result": 0},
      {"measurement": "Adverse event: Platelet count decreased", "setting": "3.0 ug/kg, n of N = 10", "result": 0},
      {"measurement": "Adverse event: Psychiatric disorders", "setting": "3.0 ug/kg, n of N = 10", "result": 1},
      {"measurement": "Adverse event: Pyrexia", "setting": "3.0 ug/kg, n of N = 10", "result": 2},
      {"measurement": "Adverse event: Rash", "setting": "3.0 ug/kg, n of N = 10", "result": 0},
      {"measurement": "Adverse event: Renal and urinary disorders", "setting": "3.0 ug/kg, n of N = 10", "result": 0},
      {"measurement": "Adverse event: Respiratory failure", "setting": "3.0 ug/kg, n of N = 10", "result": 0},
      {"measurement": "Adverse event: Respiratory, thoracic and mediastinal disorders", "setting": "3.0 ug/kg, n of N = 10", "result": 1},
      {"measurement": "Adverse event: Skin and subcutaneous tissue disorders", "setting": "3.0 ug/kg, n of N = 10", "result": 3},
      {"measurement": "Adverse event: Stomatitis", "setting": "3.0 ug/kg, n of N = 10", "result": 0},
      {"measurement": "Adverse event: Tachycardia", "setting": "3.0 ug/kg, n of N = 10", "result": 0},
      {"measurement": "Adverse event: Thrombocythaemia", "setting": "3.0 ug/kg, n of N = 10", "result": 0},
      {"measurement": "Adverse event: Thrombocytopenia", "setting": "3.0 ug/kg, n of N = 10", "result": 2},
      {"measurement": "Adverse event: Tinnitus", "setting": "3.0 ug/kg, n of N = 10", "result": 1},
      {"measurement": "Adverse event: Vascular disorders", "setting": "3.0 ug/kg, n of N = 10", "result": 0},
      {"measurement": "Adverse event: Vomiting", "setting": "3.0 ug/kg, n of N = 10", "result": 2},
      {"measurement": "Adverse event: Weight decreased", "setting": "3.0 ug/kg, n of N = 10", "result": 0},
      {"measurement": "Serious adverse event: Abdominal pain", "setting": "3.0 ug/kg, n of N = 10", "result": 0},
      {"measurement": "Serious adverse event: Acute myocardial infarction", "setting": "3.0 ug/kg, n of N = 10", "result": 0},
      {"measurement": "Serious adverse event: Anorexia", "setting": "3.0 ug/kg, n of N = 10", "result": 0},
      {"measurement": "Serious adverse event: Atrial fibrillation", "setting": "3.0 ug/kg, n of N = 10", "result": 0},
      {"measurement": "Serious adverse event: Blood and lymphatic system disorders", "setting": "3.0 ug/kg, n of N = 10", "result": 0},
      {"measurement": "Serious adverse event: Blood creatinine increased", "setting": "3.0 ug/kg, n of N = 10", "result": 0},
      {"measurement": "Serious adverse event: Cardiac disorders", "setting": "3.0 ug/kg, n of N = 10", "result": 0},
      {"measurement": "Serious adverse event: Cardiac failure", "setting": "3.0 ug/kg, n of N = 10", "result": 0},
      {"measurement": "Serious adverse event: Dehydration", "setting": "3.0 ug/kg, n of N = 10", "result": 0},
      {"measurement": "Serious adverse event: Dyspnoea", "setting": "3.0 ug/kg, n of N = 10", "result": 0},
      {"measurement": "Serious adverse event: Fatigue", "setting": "3.0 ug/kg, n of N = 10", "result": 0},
      {"measurement": "Serious adverse event: Febrile neutropenia", "setting": "3.0 ug/kg, n of N = 10", "result": 0},
      {"measurement": "Serious adverse event: Gastrointestinal disorders", "setting": "3.0 ug/kg, n of N = 10", "result": 0},
      {"measurement": "Serious adverse event: General disorders and administration site conditions", "setting": "3.0 ug/kg, n of N = 10", "result": 0},
      {"measurement": "Serious adverse event: Hyponatraemia", "setting": "3.0 ug/kg, n of N = 10", "result": 0},
      {"measurement": "Serious adverse event: Investigations", "setting": "3.0 ug/kg, n of N = 10", "result": 0},
      {"measurement": "Serious adverse event: Lung abscess", "setting": "3.0 ug/kg, n of N = 10", "result": 0},
      {"measurement": "Serious adverse event: Metabolism and nutrition disorders", "setting": "3.0 ug/kg, n of N = 10", "result": 0},
      {"measurement": "Serious adverse event: Nausea", "setting": "3.0 ug/kg, n of N = 10", "result": 0},
      {"measurement": "Serious adverse event: Neutropenia", "setting": "3.0 ug/kg, n of N = 10", "result": 0},
      {"measurement": "Serious adverse event: Pain", "setting": "3.0 ug/kg, n of N = 10", "result": 0},
      {"measurement": "Serious adverse event: Pyrexia", "setting": "3.0 ug/kg, n of N = 10", "result": 0},
      {"measurement": "Serious adverse event: Respiratory failure", "setting": "3.0 ug/kg, n of N = 10", "result": 0},
      {"measurement": "Serious adverse event: Respiratory, thoracic and mediastinal disorders", "setting": "3.0 ug/kg, n of N = 10", "result": 0},
      {"measurement": "Serious adverse event: Thrombocythaemia", "setting": "3.0 ug/kg, n of N = 10", "result": 0},
      {"measurement": "Serious adverse event: Thrombocytopenia", "setting": "3.0 ug/kg, n of N = 10", "result": 0},
      {"measurement": "Serious adverse event: Vomiting", "setting": "3.0 ug/kg, n of N = 10", "result": 0},
      {"measurement": "Total no. subjects WITH ADVERSE EVENTS", "setting": "3.0 ug/kg, n of N = 10", "result": 9},
      {"measurement": "Total no. subjects WITH SERIOUS ADVERSE EVENTS", "setting": "3.0 ug/kg, n of N = 10", "result": 0},
      {"measurement": "relation of adverse events to dose", "setting": "1.5, 2.25, 3.0 μg/kg", "result": "did not appear to be related to increasing doses"},
      {"measurement": "relatedness of all other SAEs to the compound", "setting": "human, in vivo", "result": "unrelated"},
      {"measurement": "relatedness of the SAE thrombocythemia to the compound", "setting": "one subject", "result": "very likely"}
    ]}
  ]
}
